ChEMBL document CHEMBL1201862, “PubChem BioAssay data set” (2004)
The source made the active and inactive calls.

Tests used:
[1] = rise of 4N DNA cells, HeLa – IC50, dose response (AID 1117351); type: functional, cell-based
[2] = cytotoxicity toward HT-29 cells – cell-based, CellTiter-Glo luminescence, IC50, dose response (AID 1117330); type: functional
[3] = rise of 2N DNA cells, HeLa – IC50, dose response (AID 1117349); type: functional, cell-based
[4] = viability loss in HEK293 cells – cell-based, plate reader, cherry-picked samples, cytotoxicity control, dose response (AID 743446); type: functional
[5] = toxicity toward HepG2 liver cells – cell-based, plate reader, cherry-pick, antagonist series, cytotoxicity control, dose response (AID 743416); type: functional
[6] = blockade of melanocortin 4 receptor signaling – cell-based, plate reader, cherry pick, counter-screen for LGR2 antagonist project, dose response (AID 743444); type: functional;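 note: transfected HEK 293 cells stimulated with alpha-MSH peptide; potency of inhibitors of the alpha-MSH evoked signal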
[7] = blockers of bursicon-stimulated LGR2 cAMP reporter – cell-based, HEK293, CRE-luciferase reporter, cherry pick, set 2, dose response (AID 743343); type: functional;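 note: transfected cells were stimulated with diluted bursicon conditioned medium after compound addition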
[8] = target: T1, Calpain-2 catalytic subunit (Sus scrofa, UniProt P43367); test: m-calpain protease blockers, concentration series – biochemical, fluorogenic peptide substrate, dose response (AID 1420); type: functional
T1 sequence (P43367 whole entry): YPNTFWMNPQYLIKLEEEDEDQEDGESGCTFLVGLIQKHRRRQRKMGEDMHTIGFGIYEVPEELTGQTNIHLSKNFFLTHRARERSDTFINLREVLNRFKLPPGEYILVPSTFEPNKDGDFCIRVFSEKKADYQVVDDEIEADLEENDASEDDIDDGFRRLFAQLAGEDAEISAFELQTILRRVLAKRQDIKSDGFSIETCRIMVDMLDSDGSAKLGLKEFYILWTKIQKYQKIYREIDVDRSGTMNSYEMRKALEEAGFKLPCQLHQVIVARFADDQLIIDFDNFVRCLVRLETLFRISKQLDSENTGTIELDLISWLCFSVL

[9] = system: Vero; test: mammalian cell viability reduction – secondary assay, cytotoxicity control for West Nile virus antiviral project, dose response (AID 1650); type: functional; settings: Chlorocebus sabaeus
[10] = target: T2, Carboxy-terminal domain RNA polymerase II polypeptide A small phosphatase 1 (Homo sapiens, UniProt Q9GZU7); test: CTDSP1 inhibitors, concentration-response, biochemical, absorbance readout, ultra-high-throughput screen actives (AID 540297); type: functional
T2 sequence (Q9GZU7 whole entry): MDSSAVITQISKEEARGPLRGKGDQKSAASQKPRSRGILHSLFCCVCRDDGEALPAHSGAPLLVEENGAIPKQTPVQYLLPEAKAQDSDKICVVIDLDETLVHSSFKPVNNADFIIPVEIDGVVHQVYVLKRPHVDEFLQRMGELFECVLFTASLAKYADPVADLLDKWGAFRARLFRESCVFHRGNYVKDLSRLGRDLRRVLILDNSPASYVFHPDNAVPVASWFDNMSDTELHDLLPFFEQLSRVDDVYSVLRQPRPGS

[11] = target: T3, Methionyl-tRNA synthetase, putative (Trypanosoma brucei brucei, UniProt Q38C91); type: functional, Trypanosoma brucei brucei strain 927/4 GUTat10.1
T3 sequence (Q38C91 whole entry): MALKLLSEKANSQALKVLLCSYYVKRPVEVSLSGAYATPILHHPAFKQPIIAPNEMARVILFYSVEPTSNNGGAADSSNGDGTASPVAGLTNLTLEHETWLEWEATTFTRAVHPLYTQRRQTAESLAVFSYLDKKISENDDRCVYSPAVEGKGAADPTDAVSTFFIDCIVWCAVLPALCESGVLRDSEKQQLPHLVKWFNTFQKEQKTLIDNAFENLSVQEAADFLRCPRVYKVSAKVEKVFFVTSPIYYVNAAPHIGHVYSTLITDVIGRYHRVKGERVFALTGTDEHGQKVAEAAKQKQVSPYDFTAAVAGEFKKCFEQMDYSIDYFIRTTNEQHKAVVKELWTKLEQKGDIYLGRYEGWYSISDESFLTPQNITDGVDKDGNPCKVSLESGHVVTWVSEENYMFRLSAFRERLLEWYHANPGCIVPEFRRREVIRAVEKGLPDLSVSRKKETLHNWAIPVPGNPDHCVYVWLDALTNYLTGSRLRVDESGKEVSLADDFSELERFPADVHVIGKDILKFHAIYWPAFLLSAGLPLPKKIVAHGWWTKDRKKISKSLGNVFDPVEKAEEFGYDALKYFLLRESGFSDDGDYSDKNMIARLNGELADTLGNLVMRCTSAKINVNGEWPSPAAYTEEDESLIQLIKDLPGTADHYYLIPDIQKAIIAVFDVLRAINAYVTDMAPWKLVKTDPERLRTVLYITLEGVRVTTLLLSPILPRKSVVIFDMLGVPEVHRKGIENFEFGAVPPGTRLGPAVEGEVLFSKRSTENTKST

[12] = Counterscreen for inhibitors of Trypanosoma brucei methionyl tRNA synthetase (MetRS): Luminescence-based cell-based high throughput dose response assay to identify compounds that are cytotoxic to Jurkat human T lymphocyte cells.; type: functional
[13] = target: T3, Methionyl-tRNA synthetase, putative; type: functional, Trypanosoma brucei brucei strain 927/4 GUTat10.1; remark: listed apart in the source
[14] = target: FAD-linked sulfhydryl oxidase ALR (Homo sapiens, UniProt P55789); test: ALR-catalysed DTT oxidation blockers – biochemical, H2O2 detection, luminescence, cherry-pick, dose response (AID 493248)
FAD-linked sulfhydryl oxidase ALR, sequence (P55789 whole entry, the tested form may be a part): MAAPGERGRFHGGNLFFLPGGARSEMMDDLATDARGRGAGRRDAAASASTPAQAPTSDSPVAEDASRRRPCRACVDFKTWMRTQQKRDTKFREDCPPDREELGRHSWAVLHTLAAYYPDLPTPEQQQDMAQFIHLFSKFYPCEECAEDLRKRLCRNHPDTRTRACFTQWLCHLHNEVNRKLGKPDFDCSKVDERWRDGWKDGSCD

[15] = target: T4, Polyadenylate-binding protein 1 (Homo sapiens, UniProt P11940); test: MLLE domain peptide-binding blockers, IC50 – biochemical, fluorescence polarization, FITC-PAM2 peptide, dose response (AID 602259); type: functional; settings: read-out: IC50_Mean
T4 sequence (P11940 whole entry, the tested form may be a part): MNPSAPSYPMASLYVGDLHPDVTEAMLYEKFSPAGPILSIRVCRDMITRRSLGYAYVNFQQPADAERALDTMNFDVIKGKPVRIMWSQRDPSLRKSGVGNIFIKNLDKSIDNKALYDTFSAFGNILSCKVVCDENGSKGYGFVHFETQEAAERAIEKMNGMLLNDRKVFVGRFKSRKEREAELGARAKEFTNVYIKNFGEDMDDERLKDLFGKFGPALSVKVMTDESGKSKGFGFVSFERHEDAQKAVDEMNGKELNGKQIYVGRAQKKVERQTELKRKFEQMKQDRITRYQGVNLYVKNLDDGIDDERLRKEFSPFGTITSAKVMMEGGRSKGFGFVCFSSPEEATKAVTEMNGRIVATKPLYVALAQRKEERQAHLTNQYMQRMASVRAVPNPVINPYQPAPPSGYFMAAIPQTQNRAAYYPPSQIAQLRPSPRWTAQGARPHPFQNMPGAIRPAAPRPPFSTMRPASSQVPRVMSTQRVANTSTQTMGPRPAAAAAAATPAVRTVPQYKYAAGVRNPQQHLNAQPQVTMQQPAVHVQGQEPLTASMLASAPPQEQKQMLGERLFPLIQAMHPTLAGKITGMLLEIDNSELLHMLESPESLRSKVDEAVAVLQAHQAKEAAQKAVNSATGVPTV

[16] = target: T4, Polyadenylate-binding protein 1; test: MLLE binding blockers, Cy5 peptide tracer – biochemical, fluorescence polarization, Cy5-PAM2 peptide, secondary, miRNA deadenylation inhibitor project, dose response (AID 602260); type: functional; settings: read-out: IC50_Mean
[17] = microbe, parasite or virus in culture; type: functional; settings: Mycobacterium tuberculosis

For `CC(C)=CCNc1ncnc2c1ncn2[C@@H]1O[C@H](CO)[C@@H](O)[C@H]1O` [RIBOPRINE], the IC50 [1] was > 10 µM (inactive), the IC50 [2] was > 20 µM (inactive) and the IC50 [3] was > 10 µM (inactive).

In the case of `COC(=O)c1ccc2nc(NC(=O)C(C)(C)C)sc2c1`, the AC50 [4] is reported as > 52 µM (inactive), the AC50 [5] is reported as > 52 µM (inactive) and the AC50 [6] is reported as 5.69 µM (active). For the same compound, the AC50 [7] was 5.77 µM (active) and the IC50 [8] was 24.1 µM (not active).

For `Cc1ccccc1Cn1ccc(NC(=O)c2nn(C)cc2[N+](=O)[O-])n1`, the CC50 [9] was 12.1 µM (active).

For `CCNc1nc(NCC)n2c(SCC(=O)Nc3ccc(OC(F)F)cc3)nnc2n1`, the IC50 [10] was 9.83 µM (active).

In the case of `CCc1ccc(Nc2nnc(SCC(=O)NC(=O)CN3CCCC3=O)s2)cc1`, the IC50 [10] is reported as 15 µM (active).

For `Cc1ccc(NC(=O)CN2C(=O)CN=C(c3ccccc3)c3cc(Cl)ccc32)cc1`, the IC50 [11] was 6.78 µM (active), the IC50 [12] was 6.39 µM (active) and the IC50 [13] was 2.82 µM (active).

With `O=C1CCCN1CCCNc1ncnc2c1[nH]c1ccc(Cl)cc12` the IC50 [11] was 8.28 µM (active), the IC50 [12] was 83.3 µM (inactive) and the AC50 [14] was 0.943 µM (active). The IC50 [13] was 4.36 µM (active).

For `Clc1cccc(N/N=C(\Cc2nc3ccccc3[nH]2)c2ccccc2)c1`, the IC50 [11] was 4.59 µM (active), the IC50 [12] was 62.2 µM (inactive) and the IC50 [13] was 3.09 µM (active).

In the case of `O=C(CSc1n[nH]c2c3ccccc3nc-2n1)Nc1ccc2c(c1)OCO2`, the IC50 [15] is reported as > 66 µM (inactive), the IC50 [11] is reported as 4.39 µM (active) and the IC50 [12] is reported as 83.3 µM (inactive). For the same compound, the IC50 [16] was > 66 µM (inactive) and the IC50 [13] was 1.57 µM (active).

In the case of `NC(=O)c1cccc(-c2cc(Nc3ccc(OC(F)(F)F)cc3)ncn2)c1`, the CC50 [17] is reported as > 40 µM (active).
